Results taken from patent publication US20060135800A1, “2-Methylene-19,21-dinor-1alpha-hydroxy-bishomopregnacalciferol” (Wisconsin Alumni Research Foundation, priority 2004, published 2006).
“Also recorded” adds a separate entry of the source.

Experiments:
[1] = molecular target: T1, full-length recombinant rat vitamin D receptor (Rattus norvegicus, UniProt P13053); assay: Vitamin D receptor binding, competition with [3H]-1,25-(OH)2-D3
T1 construct: Full-length recombinant rat receptor was expressed in E. coli; His tag (C); made in house; host or cells: E. coli BL21(DE3) Codon Plus RIL
T1 sequence (P13053 1-423): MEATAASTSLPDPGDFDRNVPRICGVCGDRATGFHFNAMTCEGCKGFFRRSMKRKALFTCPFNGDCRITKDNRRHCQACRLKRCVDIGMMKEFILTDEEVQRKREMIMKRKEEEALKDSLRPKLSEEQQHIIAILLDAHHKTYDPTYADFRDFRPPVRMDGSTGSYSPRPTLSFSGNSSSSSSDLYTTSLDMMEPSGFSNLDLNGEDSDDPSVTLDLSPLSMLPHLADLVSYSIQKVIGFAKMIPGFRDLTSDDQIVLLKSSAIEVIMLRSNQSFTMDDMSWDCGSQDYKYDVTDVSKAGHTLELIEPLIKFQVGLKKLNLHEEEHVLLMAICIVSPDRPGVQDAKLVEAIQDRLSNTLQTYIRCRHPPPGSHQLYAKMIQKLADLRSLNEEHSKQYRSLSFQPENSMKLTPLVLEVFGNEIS
Experimental: Full-length recombinant rat receptor was expressed in E. coli BL21(DE3) Codon Plus RIL cells and purified to homogeneity using two different column chromatography systems. The first system was a nickel affinity resin that utilizes the C-terminal histidine tag on this protein. The protein that was eluted from this resin was further purified using ion exchange chromatography (S-Sepharose Fast Flow). Aliquots of the purified protein were quick frozen in liquid nitrogen and stored at −80° C. until use. For use in binding assays, the protein was diluted in TEDK50 (50 mM Tris, 1.5 mM EDTA, pH 7.4, 5 mM DTT, 150 mM KCl) with 0.1% Chaps detergent. The receptor protein and ligand concentration was optimized such that no more than 20% of the added radiolabeled ligand was bound to the receptor.
Unlabeled ligands were dissolved in ethanol and the concentrations determined using UV spectrophotometry (1,25(OH)2D3: molar extinction coefficient=18,200 and λmax=265 nm; Analogs: molar extinction coefficient=42,000 and λmax=252 nm). Radiolabeled ligand (^3H-1,25(OH)2D3, ˜159 Ci/mmole) was added in ethanol at a final concentration of 1 nM.
Radiolabeled and unlabeled ligands were added to 100 mcl of the diluted protein at a final ethanol concentration of ≦10%, mixed and incubated overnight on ice to reach binding equilibrium. […] Total binding was determined from the tubes containing only radiolabeled ligand.

[2] = tested on: HL-60 cells; assay: HL-60 differentiation (nitro blue tetrazolium reduction); format: cell-based, human
Experimental: The study drugs were dissolved in ethanol and the concentrations determined using UV spectrophotometry. Serial dilutions were prepared so that a range of drug concentrations could be tested without changing the final concentration of ethanol (≦0.2%) present in the cell cultures.
Human promyelocytic leukemia (HL60) cells were grown in RPMI-1640 medium containing 10% fetal bovine serum. The cells were incubated at 37° C. in the presence of 5% CO2.
HL60 cells were plated at 1.2×10^5 cells/ml. Eighteen hours after plating, cells in duplicate were treated with drug. Four days later, the cells were harvested and a nitro blue tetrazolium reduction assay was performed (Collins et al., 1979; J. Exp. Med. 149:969-974). The percentage of differentiated cells was determined by counting a total of 200 cells and recording the number that contained intracellular black-blue formazan deposits. Verification of differentiation to monocytic cells was determined by measuring phagocytic activity (data not shown).

[3] = tested on: 24-hydroxylase (24Ohase) gene promoter in ROS 17/2.8 (bone) cells; assay: In vitro transcription assay (24-hydroxylase promoter luciferase reporter); format: cell-based; details: stably transfected Ros17/2.8 (bone) cells; FIG. 3
Experimental: Transcription activity was measured in ROS 17/2.8 (bone) cells that were stably transfected with a 24-hydroxylase (24Ohase) gene promoter upstream of a luciferase reporter gene (Arbour et al., 1998). Cells were given a range of doses. Sixteen hours after dosing the cells were harvested and luciferase activities were measured using a luminometer. RLU=relative luciferase units.

[4] = Intestinal calcium transport (everted gut sac method); format: in vivo, rat; details: rats, ip; even at 100 times the dose of 1α,25-dihydroxyvitamin D3; FIG. 5
Experimental: (§1) Male, weanling Sprague-Dawley rats were placed on Diet 11 (0.47% Ca) diet +AEK for one week followed by Diet 11 (0.02% Ca) +AEK for 3 weeks. The rats were then switched to a diet containing 0.47% Ca for one week followed by two weeks on a diet containing 0.02% Ca. Dose administration began during the last week on 0.02% calcium diet. Four consecutive ip doses were given approximately 24 hours apart. Twenty-four hours after the last dose, blood was collected from the severed neck and the concentration of serum calcium determined as a measure of bone calcium mobilization. The first 10 cm of the intestine was also collected for intestinal calcium transport analysis using the everted gut sac method.

[5] = Bone calcium mobilization (serum calcium); format: in vivo, rat; details: rats, ip; even at 100 times the dose of 1α,25-dihydroxyvitamin D3; FIG. 4
Experimental: as §1

[6] = PTH suppression in adult rats; format: in vivo, rat; details: normal rats, ip, 7 consecutive days; FIG. 7
Experimental: (§2) Adult, female Sprague-Dawley rats were obtained from Harlan (Madison, Wis.).
(§3) Animals were randomly assigned to treatment groups (5 animals/group). All doses were administered intraperitoneally in 100 microliters of propylene glycol. Four to seven consecutive doses were given approximately 24 hours apart. Dosing was initiated after the animals had been allowed to acclimate for at least one week.
(§4) Both control and test articles were administered by intraperitoneal injection in 100 microliters for 4-7 consecutive days spaced approximately 24 hours apart. 1,25(OH)2D3 was given for 4 consecutive days, whereas, the test drugs were given for 7 consecutive days.
Twenty-four hours after the final dose, blood was collected from the tail artery and the concentration of bioactive serum PTH was measured using the rat BioActive Intact PTH ELISA Kit from Immutopics, Inc. (San Clemente, Calif.).

[7] = Serum calcium in adult rats (hypercalcemia); format: in vivo, rat; details: ip, FIG. 6
Experimental: as §2, §3, §4
Twenty-four hours after the final dose, approximately 1 ml of blood was collected from the tail artery of each experimental animal. The blood was allowed to coagulate at room temperature and then centrifuged at 3000×g for 15 minutes. The serum was transferred to a polypropylene tube and stored frozen at −20° C. The level of calcium was determined by diluting the serum into 0.1% lanthum chloride and measuring the absorbance on an atomic absorption spectrophotometer (Perkin Elmer Model 3110, Shelton, Conn.).

binding to the recombinant vitamin D receptor, times less active than 1α,25-dihydroxyvitamin D3 ([1]; relative to 1α,25-dihydroxyvitamin D3, FIG. 1): about 5 times | binding to vitamin D receptors (in words) ([1]; summary statement): relatively high binding
SMILES: C=C1[C@H](O)CC(=C/C=C2\CCC[C@]3(C)C(CCC)CC[C@@H]23)C[C@H]1O (stereo in doubt) [2-methylene-19,21-dinor-1α-hydroxy-bishomopregnacalciferol]
inducing differentiation of HL-60 cells, times less active than 1α,25-dihydroxyvitamin D3 ([2]; relative to 1α,25-dihydroxyvitamin D3, FIG. 2): about 15 times | cell differentiation activity (in words) ([2]; summary statement): relatively high cell differentiation activity | stimulating transcription of a reporter gene [3]: active | calcemic activity measured by intestinal calcium transport [4]: very low intestinal calcium transport activity; also recorded: no calcemic activity | calcemic activity measured by bone calcium mobilization [5]: very low ability to mobilize calcium from bone; also recorded: no calcemic activity | suppressing parathyroid hormone levels [6]: significant activity | raising serum calcium concentrations [7]: absence of raising serum calcium concentrations
